The values that follow come from patent US20250032568A1, “TRADITIONAL CHINESE MEDICINE COMPOSITION AND TRADITIONAL CHINESE MEDICINE DECOCTION FOR TREATING GASTROESOPHAGEAL REFLUX DISEASE (GERD), AND PREPARATION METHOD AND USE THEREOF” (AFFILIATED HOSPITAL OF JIANGXI UNIVERSITY OF TRADITIONAL …, priority 2023, published 2025).

SMILES strings stand for the structures.

What all share (type): in vivo, human
For assay [1], the system named is gastroesophageal reflux disease (GERD). Briefly: Clinical efficacy (total effective rate) in GERD patients. The note with it: 40 per group; for Efficacy (total effective rate): (Recovery+Significant effect+Effective)/total number of cases. How it is done:
(§1) In this example, 80 patients who were diagnosed with GERD in the inpatient and outpatient departments of the Gastroenterology Department of the Affiliated Hospital of Jiangxi University of Traditional Chinese Medicine from 2022.6.1 to 2023.2-28 and met this standard were collected, with a total effective rate of 87.5%.
(§2) Treatment group: 100 mL Bid of the traditional Chinese medicine decoction prepared in Example 1
(§3) Control group: 20 mg Bid of an esomeprazole magnesium soluble capsule

The test system is the same in assay [2]. Briefly: Reflux Disease Questionnaire (RDQ) score in GERD patients. To be noted: 40 per group, mean ± S. How it is done:
as §1, §2, §3
1) Reflux Disease Questionnaire (RDQ)
RDQ is currently the most recognized and widely used diagnostic scale for GERD in the world.
The maximum score for frequency and symptom severity is 40 points, and the GERD is diagnosed when the RDQ score is >12 points.
RDQ scoring criteria: a. Scoring based on the frequency of symptom onset: based on the weekly frequency of four symptoms: heartburn, regurgitation, non-cardiac chest pain, and acid reflux, “never”, “1 week <1 d”, “1 d per 1 week”, “2-3 d per 1 week”, “4-5 d per 1 week”, and “almost every day” were scored as 0, 1, 2, 3, 4, and 5 points, respectively, with a maximum of 20 points. b. […]

Assay [3] has the same test system. Kind of assay: TCM symptom scoring in GERD patients. To be noted: 40 per group, mean ± S. How it is done: as §1, §2, §3
3) TCM symptom scoring: referring to the “Guiding Principles for Clinical Research of New Traditional Chinese Medicines” for scoring. The scoring criteria are as follows: primary symptoms including acid reflux, heartburn, belching and reflux; the secondary symptoms including retrosternal burning pain, throat discomfort, bitter mouth, nausea. There are 4 levels according to none, mild, moderate, and severe. The primary symptoms are recorded as 0, 2, 4 and 6 points, respectively, while the secondary symptoms are recorded as 0, 1, 2 and 3 points, respectively.

[4] abbreviates: decoction 100 mL Bid or esomeprazole capsule 20 mg Bid, after the test.

For `COc1ccc2[n-]c([S+]([O-])Cc3ncc(C)c(OC)c3C)nc2c1.COc1ccc2[n-]c([S+]([O-])Cc3ncc(C)c(OC)c3C)nc2c1.[Mg+2]` (stereo not drawn) [esomeprazole magnesium soluble capsule, esomeprazole magnesium], the “Efficacy (total effective rate)” value in assay [1] (listed as Control) turned out to be 82.50%. For the same compound, the “Efficacy (total effective rate)” value in assay [1] (listed as control group) was determined as 82.5%. In addition, in assay [1] (setting [4]), the “Effective (number of patients)” value is reported as 23, the “Invalid (number of patients)” value stood at 7, the “Recovery (number of patients)” value is recorded as 4 and the “Significant effect (number of patients)” value was determined as 6. Moreover, the “RDQ score after treatment” value in assay [2] was 13.73 ± 4.59^[4]. Moreover, in assay [3] (after treatment), the “TCM symptom score after treatment” value was 8.43 ± 4.29^[4]. Further, the “TCM symptom score before treatment” value in assay [3] (baseline) was 17.85 ± 4.07^[2].
